The conditions of series [1]: in vivo; cited from earlier work.
Series [2] in a line: Intrinsic dissolution rate in water. The series is classed as physicochemical. The following applies: water at 37° C. An excerpt:
Intrinsic dissolution is a method that utilizes a compressed disc of known area (a constant surface), effectively eliminating surface area and surface electrical charges as dissolution variables. The dissolution rate obtained by this method is termed the intrinsic dissolution rate and is characteristic of each solid compound in a given solvent under the fixed experimental conditions. The value is generally expressed as mg dissolved per minute per centimeters squared and is useful in predicting probable absorption problems due to dissolution rate. […] See USP General Chapter <1087> for more information.

The conditions of series [3]: cited from earlier work.
The nature of series [4]: Aqueous solubility of topiramate. The series is classed as physicochemical. To be noted: water, 37 °C, thermodynamic from solid, range stated without source. As to the method:
Aqueous solubility is determined by adding the therapeutic agent to stirred or agitated water maintained in a constant temperature bath at a temperature of 37 degrees centigrade until no more agent dissolves. The resulting solution saturated with active agent is then filtered, typically under pressure through a 0.8-micron Millipore filter, and the concentration in solution is measured by any appropriate analytical method including gravimetric, ultraviolet spectrophometry, chromatography, and the like.

≈ marks a conversion by molar mass, not a printed value.

The solubility is how much of the substance goes into solution per volume. A lower solubility goes with a poorly soluble substance. Regarding `CC1(C)O[C@@H]2[C@@H](CO[C@@]3(COS(N)(=O)=O)OC(C)(C)O[C@@H]23)O1` [Topiramate, topiramate], in series [1], the excretion result was “excreted largely through the urine”, the metabolism entry is reported as “not extensively metabolized” and the “pharmacokinetics (dose dependence of blood plasma concentration)” value is listed as “linear”. In addition, in series [2], the “dissolution rate in water” value is reported as “below 0.6 mg/min/cm2”. Also, the “solubility in alkaline solutions containing sodium hydroxide or sodium phosphate” value in series [3] (alkaline solutions) is recorded as “soluble”. Besides, in series [3] (organic solvents), the “solubility in acetone, dimethylsulfoxide and ethanol” value is reported as “soluble”. The “solubility of topiramate in water” value in series [3] (water) is on record as “about 9.8 mg/ml”. The same compound came in with a solubility in series [4] of 9.8 to 13 mg/mL (≈ 28.9 to 38.3 mM).

Values taken from patent publication US20050136108A1, “Stepwise delivery of topiramate over prolonged period of time” (priority 2003, published 2005).
